Data: US20100160351A1, “PHARMACEUTICAL COMPOSITIONS AND METHODS FOR TREATING HYPERURICEMIA AND RELATED DISORDERS” (NUON THERAPEUTICS, INC., priority 2008, published 2010)
“And” between values parts separate entries of the source, which are not always exact repeats. Equal entries are not always repeated.

Columns and labels:
[1] = test system: monosodium urate (MSU) crystal-induced air pouch inflammation; assay: Air Pouch Model 1: MSU crystal air pouch, rodent model of gout; type: in vivo, male Sprague-Dawley rats; settings: for Average Exudate Volume / Average Plasma Extravasation, OD620 nm / Total WBC in Sample / WBC: +MSU, 4 h
Experimental: The objective of this study was to evaluate the anti-inflammatory affects of tranilast versus a clinically active treatment for gout, colchicine, as well as a clinically active non-steroidal antiinflammatory drug, indomethacin. This evaluation was carried out in male Sprague-Dawley rats in a rodent model of gout. The animals were injected subcutaneously with 20 ml of sterile air, followed three days later by a supplemental injection with 20 ml of sterile air. Six days after the initial sterile air injection, the rats were injected intravenously with Evan's Blue and pretreated for thirty minutes with either a subcutaneous injection of colchicine (1 mg/kg) or indomethacin (5 mg/kg) or oral administration with either 200 mg/kg or 400 mg/kg of tranilast. After the pretreatment period, the rats were injected with 150 mg of monosodium urate (MSU) crystals (10 mg·ml) into the air pouch. Four hours later, the air pouch was injected with 5 ml heparinized saline and the entire contents of the air pouch removed, recording the total volume. The air pouch contents were evaluated for plasma extravasation and total white blood cell (WBC) count.
(§1) On day 0 the rats were anesthetized in a biological cabinet, the nape of the neck was cleansed with 70% isopropanol followed by iodine tincture (VEDCO, lot L021976). Twenty ml sterile (0.22 μm, Fisher Scientific, Cat. 09-720-3, lot R5SN25683) air was injected subcutaneously using a 23 G×2 inch needle fixed to a 20 ml syringe. The rats were returned to routine housing. No adverse reactions were observed.
as §1, with “day 3” for “day 0”
On day 6 the rats were weighed (Mettler, Model PE3000, SN: F69474) and sorted into six treatment groups of ten animals each, based upon average weight. The animals were either dosed subcutaneously with 1 ml/kg colchicine or indomethacin, or orally with either 4 ml/kg or 8 ml/kg tranilast, or 8 ml/kg vehicle. Immediately after test material administration, the rats were intravenously injected with 2 ml/kg Evans Blue.
Thirty minutes after test material administration, the rats were anesthetized and five groups were injected into the air pouch with 15 ml MSU using an 18 G×1 inch needle fitted to a 20 ml syringe. The sixth group was injected with 15 ml saline. The rats were returned to their cages, no adverse affects were observed.
Four hours after MSU injection, the rats were anesthetized and 5 ml 10 U/ml heparinized saline was injected into the air pouch. The air pouch was gently massaged, the contents immediately removed using a 14 G×1 inch needle fitted to a 6 ml syringe, and the exudate volume recorded. An aliquot of the exudate was transferred to heparin-treated microtainer tubes (Becton Dickinson, Cat. 365958, lot 8093666, exp. June 09) for white blood cell (WBC) counting. The remainder of the exudate was centrifuged (Hermle Labrotechnik, Model Z200A, SN: 44060036), the supernatants removed and evaluated at OD620nm (Spectronic Unicam, Model 4000 1/4, SN: 3SGD003006) for plasma extravasation.

[2] = test system: serum uric acid (sUA) levels; assay: Study A3006GT: phase 2 crossover, sUA in healthy subjects with screening sUA of at least 7.1 mg/dL; tranilast, febuxostat, combination; type: in vivo, human
Experimental: Study A3006GT was a phase 2, randomized, double-blind, 3-period, 3-treatment crossover trial. The primary objective was to compare the effects of three treatments on serum uric acid (sUA) levels in healthy subjects with a screening sUA level of at least 7.1 mg/dL. The three treatments were: 300 mg QD tranilast and 40 mg QD febuxostat (C); 300 mg QD tranilast alone (T); 40 mg QD febuxostat alone (F).
The study was conducted in 23 subjects. […] With two exceptions, every subject provided data for all three treatments. Subject 1001 completed only the first two periods of the study (C and F). […] Therefore, the period 3 data for subject 1024 are excluded from the analyses presented here.
Two endpoints were considered: change from baseline to day 7 in sUA; and percent change from baseline to day 7 in sUA. For each endpoint, an analysis of variance (ANOVA) model for a three-period crossover trial was used. The model included effects for sequence, subject within sequence, treatment, and period. The sequence effect was tested using the subject within sequence mean square as the error term. Two pairwise comparisons between treatments were tested: C−F and C−T. In addition, the two-sided 95% confidence interval for each of these differences was computed.
For each subject for which results were available from all three treatments, the difference between the change for C and the sum of the changes for F and T was computed. Although the true magnitude of the difference between these two values is not known, a conservative null hypothesis is that this difference should be equally likely to be greater than or less than zero. The sign test and the Wilcoxon signed rank test were used to test this null hypothesis.
Using the change for each subject as the dependent variable, an analysis of variance (ANOVA) model for a three-period crossover trial was fit. This model included effects for sequence, subject within sequence, treatment, and period. Using the least squares estimates of the mean changes for each treatment, along with the 3×3 covariance matrix of these three estimates, the mean and SD of the difference between C and F+T was estimated, as follows.

[3] = 1 mg/kg colchicine subcutaneous, 30 min before MSU
[4] = Group 2: colchicine 1 mg/kg subcutaneous
[5] = end of 1-week treatment (day 7), C: 300 mg QD tranilast + 40 mg QD febuxostat, T: 300 mg QD, F: 40 mg QD
[6] = individual subjects, per study period, end of the 1-week treatment period
[7] = 5 mg/kg indomethacin subcutaneous, 30 min before MSU
[8] = Group 3: indomethacin 5 mg/kg subcutaneous

## COc1cc2c(c(OC)c1OC)-c1ccc(OC)c(=O)cc1[C@@H](NC(C)=O)CC2 [Colchicine, N-[1,2,3,10-Tetramethoxy-9-oxo-5,6,7,9-tetrahydrobenzo[a]heptalen-7(S)-yl]acetamide]
[1]; [3]
  inhibition of plasma extravasation: 52%
  reduction in inflammatory cell infiltration: 88%
[1]; [4]
  Average Exudate Volume: 3.9 mL
  Average Plasma Extravasation, OD620 nm: 0.776
  Total WBC in Sample: 35131400
  WBC: 9215000 cells/ml

## Cc1nc(-c2ccc(OCC(C)C)c(C#N)c2)sc1C(=O)O [F]
[2]; [5]
  sUA Change from Baseline, Max: -0.70 mg/dL
  sUA Change from Baseline, Mean: -2.75 mg/dL
  sUA Change from Baseline, Median: -2.85 mg/dL
  sUA Change from Baseline, Min: -3.80 mg/dL
  sUA Percent Change from Baseline, Max: −9.21%
  sUA Percent Change from Baseline, Mean: −35.32%
  sUA Percent Change from Baseline, Median: −36.86%
  sUA Percent Change from Baseline, Min: −48.68%
[2]; [6]
  sUA Change from baseline: −0.7 mg/dL and −2.9 mg/dL (2×) and −2.1 mg/dL (2×) and −1.2 mg/dL and −1.8 mg/dL and −2.8 mg/dL and −3.5 mg/dL (2×) and −2.4 mg/dL and −3.7 mg/dL (2×) and −2.7 mg/dL and −3.6 mg/dL (2×) and −3.3 mg/dL and −3.8 mg/dL and −2.2 mg/dL and −3.1 mg/dL and −2.3 mg/dL and −2.6 mg/dL
  sUA Percent Change from baseline: −9.21% and −35.80% and −28.00% and −16.90% and −22.78% and −41.43% and −43.08% and −40.23% and −35.82% and −36.63% and −41.54% and −46.75% and −28.38% and −37.08% and −43.18% and −31.43% and −40.70% and −39.13% and −48.68% and −42.47% and −35.38% and −32.50%

## COc1ccc2c(c1)c(CC(=O)O)c(C)n2C(=O)c1ccc(Cl)cc1 [Indomethacin]
[1]; [7]
  reduction in inflammatory cell infiltration into the air pouch: 94%
  reduction of plasma extravasation: 69%
[1]; [8]
  Average Exudate Volume: 4.9 mL
  Average Plasma Extravasation, OD620 nm: 0.505
  Total WBC in Sample: 18520000
  WBC: 4160000 cells/ml
